For assay [1], the target named is T1, Ferrochelatase, mitochondrial (Homo sapiens) (UniProt P22830).
T1 sequence (whole entry): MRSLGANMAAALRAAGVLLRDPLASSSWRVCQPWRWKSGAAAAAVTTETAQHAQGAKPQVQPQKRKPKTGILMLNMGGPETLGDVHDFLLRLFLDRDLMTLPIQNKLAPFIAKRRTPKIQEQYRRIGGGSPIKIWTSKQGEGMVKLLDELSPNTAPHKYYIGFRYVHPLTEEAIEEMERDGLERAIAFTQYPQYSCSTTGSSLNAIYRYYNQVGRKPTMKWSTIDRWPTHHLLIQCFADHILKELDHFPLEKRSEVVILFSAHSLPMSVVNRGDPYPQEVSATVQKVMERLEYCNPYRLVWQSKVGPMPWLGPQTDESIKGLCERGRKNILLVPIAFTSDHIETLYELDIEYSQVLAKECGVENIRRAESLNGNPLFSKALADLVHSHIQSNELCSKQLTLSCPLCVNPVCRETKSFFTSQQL
To be noted: at 10 µM.
Description: Compound was evaluated for the inhibition of human FECH at 10uM

Assay [2] deals with T2, Porphobilinogen deaminase (Homo sapiens) (UniProt P08397).
T2 sequence (whole entry): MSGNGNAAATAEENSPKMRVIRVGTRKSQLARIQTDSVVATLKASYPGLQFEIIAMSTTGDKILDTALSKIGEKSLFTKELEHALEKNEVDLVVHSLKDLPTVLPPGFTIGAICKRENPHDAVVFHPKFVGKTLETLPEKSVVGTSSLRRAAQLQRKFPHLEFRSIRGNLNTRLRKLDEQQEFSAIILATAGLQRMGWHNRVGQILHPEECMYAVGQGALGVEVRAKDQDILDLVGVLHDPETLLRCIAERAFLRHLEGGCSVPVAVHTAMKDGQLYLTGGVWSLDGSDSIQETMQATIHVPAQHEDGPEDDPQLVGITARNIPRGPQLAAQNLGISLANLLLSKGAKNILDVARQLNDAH
The note with it: at 100 µM.
Description: Compound was evaluated for the inhibition of human HMBS at 100uM

Active and inactive are the calls of the source. No rule for the calls is given here.

The values below come from ChEMBL document CHEMBL3987221, “The Australian National University Dept Of Immunology Pathogen Box Compounds Screened” (2018).

Consider `CC(c1cc(Cl)cc(Cl)c1)N(C)c1ncc2c(N)nc(N)nc2n1` (stereo not given), for which the inhibition entry in assay [1] and in assay [2] was “inactive” in each case.

In the case of `Cc1[nH]c2ccccc2c1C(c1cccs1)N1CCN(C)CC1` (stereo not given), the inhibition result in assay [1] and in assay [2] was “inactive” each time.

As for `CNC(=O)c1cc(S(=O)(=O)N2CCN(c3ccccn3)CC2)cs1`, the inhibition result in assay [1] and in assay [2] was “inactive” in each case.

Take `Cc1ccc(S(=O)(=O)n2cc(-c3ccnc(N)c3)c3cc(Br)cnc32)cc1`: the inhibition entry in assay [1] and in assay [2] was “inactive” each time.

As for `CN1CCCN(C(c2ccccc2)c2ccc(Cl)cc2)CC1` (stereo not given), the inhibition result in assay [1] and in assay [2] was “inactive” in each case.

In the case of `CC(C)c1ncc(-c2ccncc2)c([C@H]2CC[C@H](CNC(=O)c3cccnc3)CC2)n1`, the inhibition entry in assay [1] and in assay [2] was “inactive” in each case.

For the molecule `CCCNC(=O)N1CCC2(CC1)CC(=O)c1cc(C)ccc1O2`, the inhibition result in assay [1] and in assay [2] was “inactive” throughout.

Turning to `CC1=NN(c2nc3ccccc3s2)C(=O)C1Cc1cccc2ccccc12` (stereo not given), the inhibition entry in assay [1] and in assay [2] was “inactive” each time.

For the molecule `O=C(C1CCCCC1)N1CC(=O)N2CCc3ccccc3C2C1` (stereo not given), the inhibition entry in assay [1] and in assay [2] was “inactive” throughout.

Regarding `COc1cc(Br)cc2cc(C(=O)Nc3cccc(C(F)(F)F)c3)c(=O)oc12`, the inhibition result in assay [1] and in assay [2] was “inactive” each time.

Consider `CCOc1ccc(-c2nc(CNCCc3ccc(F)cc3)cs2)cc1`, for which the inhibition entry in assay [1] and in assay [2] was “inactive” in each case.

With `CCc1nn(C)c(C(=O)NCc2ccc(Oc3ccc(C)cc3)cc2)c1Cl`, the inhibition result in assay [1] and in assay [2] was “inactive” each time.

Consider `CCOc1ccc(OCC(=O)Nc2cc(C)cc(C)c2)cc1`, for which the inhibition entry in assay [1] and in assay [2] was “inactive” each time.

On to `Cc1nc(-c2ccccn2)nc(NCCc2ccc(S(C)(=O)=O)cc2)c1Cl`, for which the inhibition result in assay [1] and in assay [2] was “inactive” each time.

With `Cc1nn(C)c(C)c1NS(=O)(=O)c1c(Cl)cc(-c2ccnc(N3CCNCC3)c2)cc1Cl`, the inhibition result in assay [1] and in assay [2] was “inactive” throughout.

With `O=C(Nc1c(O)cccc1-c1nc2c(C(=O)O)cccc2o1)c1cc(-c2ccccc2)on1`, the inhibition result in assay [1] and in assay [2] was “inactive” in each case.

On to `O=C(OCc1ccccc1)N1CCC(c2cc(-c3ccncc3)c(-c3ccc(F)cc3)[nH]2)CC1`, for which the inhibition entry in assay [1] and in assay [2] was “inactive” in each case.

In the case of `c1ccc(-c2nc(NC3CCCCC3)cc(C3CC3)n2)nc1`, the inhibition entry in assay [1] and in assay [2] was “inactive” each time.

Take `O=C(Nc1ccc(C(F)(F)F)c(C(F)(F)F)c1)c1cc(Cl)ccc1O`: the inhibition result in assay [1] and in assay [2] was “inactive” each time.

With `Cc1cc(C(=O)Nc2cnn(Cc3ccc(Cl)cc3Cl)c2)no1`, the inhibition entry in assay [1] and in assay [2] was “inactive” each time.

Regarding `CNC(=O)C1Cc2ccccc2N1C(=O)Cc1ccc(F)cc1` (stereo not given), the inhibition result in assay [1] and in assay [2] was “inactive” throughout.

`CC(C)(C)n1nc(-c2ccccc2)c2c(N)ncnc21`: the inhibition result in assay [1] and in assay [2] was “inactive” throughout.

Take `Cc1nc(-c2ccccn2)nc(N(C)CCc2ccccc2)c1Cl`: the inhibition result in assay [1] and in assay [2] was “inactive” in each case.

On to `COc1ccc(N(CCc2cccc(C)n2)C(=O)C2CCCCC2)cc1`, for which the inhibition result in assay [1] and in assay [2] was “inactive” in each case.

On to `Cc1ccc2cc(C3NC(=O)c4ccccc4N3)c(Cl)nc2c1` (stereo not given), for which the inhibition result in assay [1] and in assay [2] was “inactive” each time.

For `Brc1c(-c2ccc3c(c2)OCO3)nc2ncccn12`, the inhibition result in assay [1] and in assay [2] was “inactive” in each case.

Take `CC(=O)N1CCN(c2ccc(Oc3ccc(Cl)cc3O)cc2)CC1`: the inhibition result in assay [1] and in assay [2] was “inactive” in each case.

With `COc1ccc(-c2nc(-c3cccc(NC(=O)Cc4ccc(F)cc4)c3)no2)cc1OC`, the inhibition entry in assay [1] and in assay [2] was “inactive” throughout.

Turning to `N#Cc1nc(-c2ccccc2)oc1S(=O)(=O)c1ccc(Cl)cc1`, the inhibition result in assay [1] and in assay [2] was “inactive” in each case.

As to `Cn1ccnc1CNCCS(=O)(=O)c1cccc(Nc2ccc(-c3cccc(F)c3)cn2)c1`, the inhibition result in assay [1] and in assay [2] was “inactive” each time.

As for `CN(C)c1cc(NC(=O)Nc2ccccc2)c2ccccc2n1`, the inhibition entry in assay [1] and in assay [2] was “inactive” each time.

As for `CCc1ccc(C(NCc2nc(N)nc(N(C)C)n2)C(C)C)cc1` (stereo not given), the inhibition result in assay [1] and in assay [2] was “inactive” each time.

Consider `N#Cc1ccc(-c2ccc(OCC(N)=O)cc2)cc1`, for which the inhibition entry in assay [1] and in assay [2] was “inactive” throughout.

As to `Cc1cc(C)n(-c2ccc(NC(=O)C3CCN(Cc4cnc(C)s4)CC3)cc2)n1`, the inhibition result in assay [1] and in assay [2] was “inactive” throughout.

On to `O=C(C(Cc1c[nH]c2ccccc12)NS(=O)(=O)c1ccc(Cl)cc1)N1CCCCC1` (stereo not given), for which the inhibition result in assay [1] and in assay [2] was “inactive” throughout.

For `Clc1ccc(Cl)c(CO[C@H]2CCCC[C@@H]2n2ccnc2)c1`, the inhibition result in assay [1] and in assay [2] was “inactive” in each case.

Take `NS(=O)(=O)c1cncc(-c2ccc3nccc(-c4cn[nH]c4)c3n2)c1`: the inhibition result in assay [1] and in assay [2] was “inactive” each time.

In the case of `Cc1cc(C)c2cc(C(=O)NC3CCCCCCC3)[nH]c2c1`, the inhibition result in assay [1] and in assay [2] was “inactive” in each case.

In the case of `Cc1noc(C)c1C(=O)N1CCCC(c2[nH]c3c(C)cccc3c2-c2ccncc2)C1` (stereo not given), the inhibition result in assay [1] and in assay [2] was “inactive” throughout.

As for `O=C1[C@@H](Oc2ccccc2)[C@@H](c2ccc(Cl)cc2)N1CCn1cnc2c(NCc3ccccc3)ncnc21`, the inhibition entry in assay [1] and in assay [2] was “inactive” each time.

`CNc1nnc(Sc2cnn(-c3ccccc3)c(=O)c2Cl)s1`: the inhibition result in assay [1] and in assay [2] was “inactive” throughout.

Take `COc1ccc2nc(C)cc(OCC(=O)Nc3ccccc3OC)c2c1`: the inhibition result in assay [1] and in assay [2] was “inactive” each time.

Regarding `COc1cc(C(F)(F)F)nc2ccc(C)c(N)c12`, the inhibition entry in assay [1] and in assay [2] was “inactive” in each case.

Consider `O=C1N(Cc2cc3ccccc3s2)CC2CN(Cc3ccccc3)CCN12` (stereo not given), for which the inhibition result in assay [1] and in assay [2] was “inactive” throughout.

In the case of `CC1COC2(CCN(c3nc(=O)c4cc(C(F)(F)F)cc([N+](=O)[O-])c4s3)CC2)O1` (stereo not given), the inhibition result in assay [1] and in assay [2] was “inactive” each time.

Regarding `NCCC(O)C(=O)N[C@@H]1C[C@H](N)[C@@H](OC2O[C@H](CN)[C@@H](O)[C@H](O)[C@H]2O)[C@H](O)C1OC1O[C@H](CO)[C@@H](O)[C@H](N)[C@H]1O` (stereo not given in full), the inhibition result in assay [1] and in assay [2] was “inactive” each time.

In the case of `COc1ccccc1C(C)NCC(=O)Nc1cc(C(F)(F)F)ccc1Cl` (stereo not given), the inhibition result in assay [1] and in assay [2] was “inactive” each time.

Turning to `CNC(=O)C1Cc2c([nH]c3cc(Cl)ccc23)C2(CCN(CCc3ccccc3)CC2)N1` (stereo not given), the inhibition result in assay [1] and in assay [2] was “inactive” in each case.

On to `Clc1ccc(-n2cc(COc3ccnc4ccccc34)nn2)cc1`, for which the inhibition result in assay [1] and in assay [2] was “inactive” each time.

In the case of `COc1ccc2nccc(NC(=O)C3CCN(CCc4ccc(Cl)cc4)CC3)c2n1`, the inhibition entry in assay [1] and in assay [2] was “inactive” each time.

For `COc1ccc(S(=O)(=O)Nc2ccc(CN3CCN(C(=O)c4cccc(C#N)c4)CC3)cc2)cc1`, the inhibition entry in assay [1] and in assay [2] was “inactive” in each case.

Regarding `COc1ccc(OC)c(NCc2ccc3nc(N)nc(N)c3c2Cl)c1`, the inhibition entry in assay [1] and in assay [2] was “inactive” in each case.

Regarding `Cc1ccc(S(=O)(=O)Nc2ccc(CN3CCN(C(=O)c4cccc(C#N)c4)CC3)cc2)cc1`, the inhibition entry in assay [1] and in assay [2] was “inactive” each time.

`COc1ccc(-c2cnc3ccc(NCc4ccc(S(N)(=O)=O)cc4)nn23)cn1`: the inhibition result in assay [1] and in assay [2] was “inactive” throughout.

Regarding `CN1CCC(NCc2cccc(-c3ccc(S(=O)(=O)NCc4ccccc4)cc3)c2)CC1`, the inhibition result in assay [1] and in assay [2] was “inactive” throughout.
